Test results taken from ChEMBL document CHEMBL1201862, “PubChem BioAssay data set” (2004).
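Test compounds were applied to cells in 96-well plates for 48 hours at 5 doses. GI50 marks 50% less growth.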 Activity calls are given as the source filed them. No stated cut-off is given here; in the data, active = GI50 up to about 1.1 µM and inactive = higher.

How the values were obtained:
Test in all cases: inhibition of tumour cell growth, NCI panel, 48 h
MDA-MB-435 = system: MDA-MB-435
HT-29 = system: HT-29
SK-MEL-2 = system: SK-MEL-2
EKVX = system: EKVX
SF-539 = system: SF-539
Malme-3M = system: Malme-3M
SR = system: SR
HOP-62 = system: HOP-62
CCRF-CEM = system: CCRF-CEM
M14 = system: M14
NCI-H460 = system: NCI-H460
RXF 393 = system: RXF 393
K562 = system: K562
A549 = system: A549
HCT-116 = system: HCT-116
SN12C = system: SN12C
Hs-578T = system: Hs-578T
UACC-62 = system: UACC-62

Measured: GI50

CN(C)c1ccc2oc(=O)c3ccccc3c2c1
inactive: MDA-MB-435 > 100 µM | HT-29 > 100 µM | SK-MEL-2 33.7 µM | EKVX 20.4 µM | SF-539 33.1 µM | Malme-3M > 100 µM | SR > 100 µM | HOP-62 21 µM | CCRF-CEM > 100 µM | M14 > 100 µM | NCI-H460 > 100 µM | RXF 393 31.5 µM | K562 > 100 µM | A549 > 100 µM | HCT-116 40.9 µM | SN12C > 100 µM | Hs-578T 31.7 µM | UACC-62 99.8 µM

N#Cc1ccc2[nH]c3c(c2c1)CC(=O)Nc1ccccc1-3 [PAULLONE 2]
inactive: MDA-MB-435 > 100 µM | HT-29 > 100 µM | SK-MEL-2 > 100 µM | EKVX > 100 µM | SF-539 > 100 µM | SR 2.9 µM | HOP-62 > 100 µM | CCRF-CEM > 100 µM | M14 > 100 µM | NCI-H460 > 100 µM | RXF 393 > 100 µM | K562 > 100 µM | A549 > 100 µM | HCT-116 21.5 µM | Hs-578T > 100 µM | UACC-62 > 100 µM

Cc1cn([C@@H]2C[C@H](CO)[C@@H]2O)c(=O)[nH]c1=O
inactive: MDA-MB-435 > 100 µM | HT-29 > 100 µM | SK-MEL-2 > 100 µM | EKVX > 100 µM | SF-539 > 100 µM | Malme-3M > 100 µM | SR > 100 µM | HOP-62 > 100 µM | CCRF-CEM > 100 µM | NCI-H460 > 100 µM | RXF 393 > 100 µM | K562 > 100 µM | A549 > 100 µM | HCT-116 > 100 µM | SN12C > 100 µM | Hs-578T > 100 µM

CC(=O)Nc1ccccc1C=C1c2ccccc2-c2ccccc21
inactive: MDA-MB-435 > 100 µM | HT-29 > 100 µM | SK-MEL-2 34 µM | EKVX 38.8 µM | SF-539 13.2 µM | Malme-3M > 100 µM | SR 98.9 µM | HOP-62 19.5 µM | CCRF-CEM 48 µM | M14 36.7 µM | NCI-H460 34.7 µM | RXF 393 20.8 µM | K562 51.9 µM | A549 24.1 µM | HCT-116 29.7 µM | SN12C 19.1 µM | Hs-578T > 100 µM | UACC-62 41.7 µM
